Source: ChEMBL document CHEMBL4411307, “N,N'-diaryl-bishydrazones in a biphenyl platform: Broad spectrum antifungal agents” (Eur J Med Chem, 2019)
In brackets after ≈: the same amount, converted by molar mass. Activity calls are given as the source filed them. The calls are words filed in the database; no cut-off is given here.

Tests used:
Listeria monocytogenes = experiment: Antibacterial activity against Listeria monocytogenes; assay type: functional, organism-based
Staphylococcus aureus = experiment: Antibacterial activity against methicillin-resistant Staphylococcus aureus; assay type: functional, organism-based
Enterococcus = experiment: Antibacterial activity against vancomycin-resistant Enterococcus; assay type: functional, organism-based
Candida albicans [1] = experiment: Antifungal activity against fluconazole/ITC-resistant Candida albicans ATCC 10231 measured after 48 hrs by CLSI M27-A3 protocol based method; assay type: functional; conditions: ATCC 10231, 48 h
Candida albicans [2] = experiment: Antifungal activity against fluconazole/ITC-resistant Candida albicans ATCC 64124 measured after 48 hrs by CLSI M27-A3 protocol based method; assay type: functional; conditions: ATCC 64124, 48 h
Candida albicans [3] = experiment: Antifungal activity against fluconazole/ITC-susceptible Candida albicans ATCC MYA-2876 measured after 48 hrs by CLSI M27-A3 protocol based method; assay type: functional; conditions: ATCC MYA-2876, 48 h
Candida albicans [4] = experiment: Antifungal activity against fluconazole/ITC-resistant Candida albicans ATCC 90819 measured after 48 hrs by CLSI M27-A3 protocol based method; assay type: functional; conditions: ATCC 90819, 48 h
Candida albicans [5] = experiment: Antifungal activity against fluconazole/ITC-susceptible Candida albicans ATCC MYA-2310 measured after 48 hrs by CLSI M27-A3 protocol based method; assay type: functional; conditions: ATCC MYA-2310, 48 h
Candida albicans [6] = experiment: Antifungal activity against fluconazole/ITC-resistant Candida albicans ATCC MYA-1237 measured after 48 hrs by CLSI M27-A3 protocol based method; assay type: functional; conditions: ATCC MYA-1237, 48 h
Candida albicans [7] = experiment: Antifungal activity against fluconazole/ITC-resistant Candida albicans ATCC MYA-1003 measured after 48 hrs by CLSI M27-A3 protocol based method; assay type: functional; conditions: ATCC MYA-1003, 48 h
Nakaseomyces glabratus = experiment: Antifungal activity against Candida glabrata ATCC 2001 measured after 48 hrs by CLSI M27-A3 protocol based method; assay type: functional; conditions: CBS 138, 48 h
Pichia kudriavzevii = experiment: Antifungal activity against Candida krusei ATCC 6258 measured after 48 hrs by CLSI M27-A3 protocol based method; assay type: functional; conditions: ATCC 6258, 48 h
Candida parapsilosis = experiment: Antifungal activity against Candida parapsilosis ATCC 22019 measured after 48 hrs by CLSI M27-A3 protocol based method; assay type: functional; conditions: Lodderomyces parapsilosis, ATCC 22019, 48 h
Aspergillus flavus = experiment: Antifungal activity against Aspergillus flavus ATCC MYA-3631 measured after 48 hrs by CLSI M38-A2 protocol based method; assay type: functional; conditions: ATCC MYA-3631, 48 h
Aspergillus nidulans = experiment: Antifungal activity against Aspergillus nidulans ATCC 38163 measured after 48 hrs by CLSI M38-A2 protocol based method; assay type: functional; conditions: ATCC 38163, 48 h
Aspergillus terreus = experiment: Antifungal activity against Aspergillus terreus ATCC MYA-3633 measured after 48 hrs by CLSI M38-A2 protocol based method; assay type: functional; conditions: ATCC MYA-3633, 48 h
A549 = experiment: Cytotoxicity against human A549 cells after 24 hrs by resazurin based assay; assay type: cell-based; conditions: a549, 24 h
BEAS-2B = experiment: Cytotoxicity against human BEAS2B cells after 24 hrs by resazurin based assay; assay type: cell-based
[8] = Selectivity index, ratio of CC50 for human A549 cells to MIC for fluconazole/ITC-resistant Candida albicans ATCC 10231; assay type: toxicity; conditions: read-out: Selectivity Index
[9] = Selectivity index, ratio of CC50 for human A549 cells to MIC for fluconazole/ITC-resistant Candida albicans ATCC 64124; assay type: toxicity; conditions: read-out: Selectivity Index
[10] = Selectivity index, ratio of CC50 for human A549 cells to MIC for fluconazole/ITC-susceptible Candida albicans ATCC MYA-2876; assay type: toxicity; conditions: read-out: Selectivity Index
[11] = Selectivity index, ratio of CC50 for human A549 cells to MIC for fluconazole/ITC-resistant Candida albicans ATCC 90819; assay type: toxicity; conditions: read-out: Selectivity Index
[12] = Selectivity index, ratio of CC50 for human A549 cells to MIC for fluconazole/ITC-susceptible Candida albicans ATCC MYA-2310; assay type: toxicity; conditions: read-out: Selectivity Index
[13] = Selectivity index, ratio of CC50 for human A549 cells to MIC for fluconazole/ITC-resistant Candida albicans ATCC MYA-1237; assay type: toxicity; conditions: read-out: Selectivity Index
[14] = Selectivity index, ratio of CC50 for human A549 cells to MIC for fluconazole/ITC-resistant Candida albicans ATCC MYA-1003; assay type: toxicity; conditions: read-out: Selectivity Index
[15] = Selectivity index, ratio of CC50 for human A549 cells to MIC for Candida glabrata ATCC 2001; assay type: toxicity; conditions: read-out: Selectivity Index
[16] = Selectivity index, ratio of CC50 for human A549 cells to MIC for Candida krusei ATCC 6258; assay type: toxicity; conditions: read-out: Selectivity Index
[17] = Selectivity index, ratio of CC50 for human A549 cells to MIC for Candida parapsilosis ATCC 22019; assay type: toxicity; conditions: read-out: Selectivity Index
[18] = Selectivity index, ratio of CC50 for human A549 cells to MIC for Aspergillus nidulans ATCC 38163; assay type: toxicity; conditions: read-out: Selectivity Index
[19] = Selectivity index, ratio of CC50 for human A549 cells to MIC for Aspergillus terreus ATCC MYA-3633; assay type: toxicity; conditions: read-out: Selectivity Index
[20] = Hemolytic activity in mouse RBC at […] after 1 hr relative to control; assay type: ADME, cell-based, Erythrocyte; conditions: red blood cells (erythrocytes), read-out: Activity; further: tested at 0.48 µg/mL
[21] = Hemolytic activity in mouse RBC at […] ug/ml after 1 hr relative to control; assay type: ADME, cell-based, Erythrocyte; conditions: red blood cells (erythrocytes), read-out: Activity
[22] = Hemolytic activity in mouse RBC at 1.95 ug/ml after 1 hr relative to control; assay type: ADME, cell-based, Erythrocyte; conditions: red blood cells (erythrocytes), read-out: Activity
[23] = Hemolytic activity in mouse RBC at 3.9 ug/ml after 1 hr relative to control; assay type: ADME, cell-based, Erythrocyte; conditions: red blood cells (erythrocytes), read-out: Activity
[24] = Hemolytic activity in mouse RBC at 7.8 ug/ml after 1 hr relative to control; assay type: ADME, cell-based, Erythrocyte; conditions: red blood cells (erythrocytes), read-out: Activity
[25] = Hemolytic activity in mouse RBC at 31.3 ug/ml after 1 hr relative to control; assay type: ADME, cell-based, Erythrocyte; conditions: red blood cells (erythrocytes), read-out: Activity
[26] = Hemolytic activity in mouse RBC at 62.5 ug/ml after 1 hr relative to control; assay type: ADME, cell-based, Erythrocyte; conditions: red blood cells (erythrocytes), read-out: Activity
[27] = Selectivity index, ratio of compound concentration showing <20 to <30% hemolysis in mouse RBC to MIC for fluconazole/ITC-resistant Candida albicans ATCC 10231; assay type: toxicity; conditions: red blood cells (erythrocytes), read-out: Selectivity Index
[28] = Selectivity index, ratio of compound concentration showing <20 to <30% hemolysis in mouse RBC to MIC for fluconazole/ITC-resistant Candida albicans ATCC 64124; assay type: toxicity; conditions: red blood cells (erythrocytes), read-out: Selectivity Index
[29] = Selectivity index, ratio of compound concentration showing <20 to <30% hemolysis in mouse RBC to MIC for fluconazole/ITC-susceptible Candida albicans ATCC MYA-2876; assay type: toxicity; conditions: red blood cells (erythrocytes), read-out: Selectivity Index
[30] = Selectivity index, ratio of compound concentration showing <20 to <30% hemolysis in mouse RBC to MIC for fluconazole/ITC-resistant Candida albicans ATCC 90819; assay type: toxicity; conditions: red blood cells (erythrocytes), read-out: Selectivity Index
[31] = Selectivity index, ratio of compound concentration showing <20 to <30% hemolysis in mouse RBC to MIC for fluconazole/ITC-susceptible Candida albicans ATCC MYA-2310; assay type: toxicity; conditions: mouse red blood cells (RBC), read-out: Selectivity Index
[32] = Selectivity index, ratio of compound concentration showing <20 to <30% hemolysis in mouse RBC to MIC for fluconazole/ITC-resistant Candida albicans ATCC MYA-1237; assay type: toxicity; conditions: mouse red blood cells (RBC), read-out: Selectivity Index
[33] = Selectivity index, ratio of compound concentration showing <20 to <30% hemolysis in mouse RBC to MIC for fluconazole/ITC-resistant Candida albicans ATCC MYA-1003; assay type: toxicity; conditions: mouse red blood cells (RBC), read-out: Selectivity Index
[34] = Selectivity index, ratio of compound concentration showing <20 to <30% hemolysis in mouse RBC to MIC for Candida glabrata ATCC 2001; assay type: toxicity; conditions: mouse red blood cells (RBC), read-out: Selectivity Index
[35] = Selectivity index, ratio of compound concentration showing <20 to <30% hemolysis in mouse RBC to MIC for Candida krusei ATCC 6258; assay type: toxicity; conditions: mouse red blood cells (RBC), read-out: Selectivity Index
[36] = Selectivity index, ratio of compound concentration showing <20 to <30% hemolysis in mouse RBC to MIC for Candida parapsilosis ATCC 22019; assay type: toxicity; conditions: mouse red blood cells (RBC), read-out: Selectivity Index
[37] = Selectivity index, ratio of compound concentration showing <20 to <30% hemolysis in mouse RBC to MIC for Aspergillus flavus ATCC MYA-3631; assay type: toxicity; conditions: mouse red blood cells (RBC), read-out: Selectivity Index
[38] = Selectivity index, ratio of compound concentration showing <20 to <30% hemolysis in mouse RBC to MIC for Aspergillus nidulans ATCC 38163; assay type: toxicity; conditions: mouse red blood cells (RBC), read-out: Selectivity Index
[39] = Selectivity index, ratio of compound concentration showing <20 to <30% hemolysis in mouse RBC to MIC for Aspergillus terreus ATCC MYA-3633; assay type: toxicity; conditions: mouse red blood cells (RBC), read-out: Selectivity Index

Fc1ccc(N/N=C/c2ccc(-c3ccc(/C=N/Nc4ccc(F)cc4)cc3)cc2)cc1
Activity (Listeria monocytogenes): inactive | Activity (Staphylococcus aureus): inactive | Activity (Enterococcus): inactive | MIC (Candida albicans [1]): 7.8 µg/mL (≈ 18.3 µM) | MIC (Candida albicans [2]): 15.6 µg/mL (≈ 36.6 µM) | MIC (Candida albicans [3]): 7.8 µg/mL (≈ 18.3 µM) | MIC (Candida albicans [4]): 31.3 µg/mL (≈ 73.4 µM) | MIC (Candida albicans [5]): 15.6 µg/mL (≈ 36.6 µM) | MIC (Candida albicans [6]): 7.8 µg/mL (≈ 18.3 µM) | MIC (Candida albicans [7]): 7.8 µg/mL (≈ 18.3 µM) | MIC (Nakaseomyces glabratus): 15.6 µg/mL (≈ 36.6 µM) | MIC (Pichia kudriavzevii): 1.95 µg/mL (≈ 4.57 µM) | MIC (Candida parapsilosis): 31.3 µg/mL (≈ 73.4 µM) | MIC (Aspergillus flavus): 7.8 µg/mL (≈ 18.3 µM) | MIC (Aspergillus nidulans): 7.8 µg/mL (≈ 18.3 µM) | MIC (Aspergillus terreus): > 31.3 µg/mL | CC50 (A549): 17.7 µg/mL (≈ 41.5 µM) | CC50 (BEAS-2B): 8.5 µg/mL (≈ 19.9 µM) | selectivity ratio [8]: 2.3 | selectivity ratio [9]: 1.1 | selectivity ratio [10]: 2.3 | selectivity ratio [11]: 0.6 | selectivity ratio [12]: 1.1 | selectivity ratio [13]: 2.3 | selectivity ratio [14]: 2.3 | selectivity ratio [15]: 1.1 | selectivity ratio [16]: 9.1 | selectivity ratio [17]: 0.6 | selectivity ratio [18]: 2.3 | selectivity ratio [19]: 0.6 | hemolysis at 1 h, […] [20]: 0% | hemolysis at 1 h, 15.6 ug/ml ([21]; at 15.6 µg/mL): 9% | hemolysis at 1 h, 0.975 ug/ml [21]: 0% | hemolysis at 1 h, 1.95 ug/ml [22]: 1.1% | hemolysis at 1 h, 3.9 ug/ml [23]: 0.7% | hemolysis at 1 h, 7.8 ug/ml [24]: 3.2% | hemolysis at 1 h, 31.3 ug/ml [25]: 9.6% | hemolysis at 1 h, 62.5 ug/ml [26]: 28.3% | selectivity ratio [27]: 1 to 32 | selectivity ratio [28]: 1 to 32 | selectivity ratio [29]: 1 to 32 | selectivity ratio [30]: 1 to 32 | selectivity ratio [31]: 1 to 32 | selectivity ratio [32]: 1 to 32 | selectivity ratio [33]: 1 to 32 | selectivity ratio [34]: 1 to 32 | selectivity ratio [35]: 1 to 32 | selectivity ratio [36]: 1 to 32 | selectivity ratio [37]: 1 to 32 | selectivity ratio [38]: 1 to 32 | selectivity ratio [39]: 1 to 32
